Data reported in ChEMBL document CHEMBL1201862, “PubChem BioAssay data set” (2004).
Activity calls are given as the source filed them.

What was measured:
Protein RecA = molecular target: T1, Protein RecA (Mycobacterium tuberculosis, UniProt P9WHJ3); test: Fluorescence Cell-Free Homogeneous Dose Retest to Identify Inhibitors of RecA-Intein Splicing Activity. [Related pubchem assays (depositor defined):AID2097, AID2223, AID489010, AID492950]; type: functional
T1 sequence (P9WHJ3 whole entry): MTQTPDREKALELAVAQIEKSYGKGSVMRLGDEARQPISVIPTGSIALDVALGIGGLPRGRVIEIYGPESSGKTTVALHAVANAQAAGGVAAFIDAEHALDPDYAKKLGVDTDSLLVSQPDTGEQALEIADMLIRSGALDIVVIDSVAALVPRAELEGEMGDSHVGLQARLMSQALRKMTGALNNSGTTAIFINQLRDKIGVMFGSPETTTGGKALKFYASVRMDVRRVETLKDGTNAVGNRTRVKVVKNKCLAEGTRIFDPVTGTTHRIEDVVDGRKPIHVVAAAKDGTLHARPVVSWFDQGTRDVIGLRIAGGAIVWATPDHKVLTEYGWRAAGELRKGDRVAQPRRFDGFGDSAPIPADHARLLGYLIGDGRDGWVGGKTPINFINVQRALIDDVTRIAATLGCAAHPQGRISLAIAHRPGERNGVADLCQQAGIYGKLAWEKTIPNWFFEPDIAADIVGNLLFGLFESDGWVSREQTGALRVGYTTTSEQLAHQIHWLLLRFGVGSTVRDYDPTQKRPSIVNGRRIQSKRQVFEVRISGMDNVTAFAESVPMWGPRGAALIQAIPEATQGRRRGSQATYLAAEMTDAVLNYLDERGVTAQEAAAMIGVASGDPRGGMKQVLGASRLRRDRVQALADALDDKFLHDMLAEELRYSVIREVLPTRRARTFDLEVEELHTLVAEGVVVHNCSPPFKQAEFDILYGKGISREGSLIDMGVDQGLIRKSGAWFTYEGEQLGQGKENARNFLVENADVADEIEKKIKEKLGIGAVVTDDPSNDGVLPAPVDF

[1] = fluconazole-exposed Candida albicans growth modulators – fluorescence, retest, confirmation (AID 2467); type: functional, cell-based
[2] = NIH-3T3 fibroblast cytotoxicity, dose response, cytotoxicity control, cell-based, fluorescence, Alamar Blue, secondary assay (AID 2327); type: functional;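 further: NIH-3T3 mouse fibroblasts cultured with fluconazole at 8 µg/mL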
Streptococcus = test: GAS UMAA2166 growth inhibition – luminescence, BacTiterGlo, counter-screen for streptokinase expression inhibitor project, dose response (AID 1915); type: functional, organism-based;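 further: potency for reduction of bacterial viability or growth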
[3] = Luminescence Cell-Based Dose Retest to Confirm Inhibitors of Cancer Stem Cells. [Related pubchem assays (depositor defined):AID2717, AID2721]; type: functional; details: Homo sapiens
[4] = test system: Streptococcus sp. 'group A'; test: Streptococcus pyogenes SK(-)GAS viability under kanamycin – luminescence, BacTiterGlo, confirmation, counter-screen for streptokinase expression inhibitor project, dose response (AID 1900); type: functional, organism-based
Cytochrome P450 3A4 = Cytochrome P450 3A4 (Homo sapiens, UniProt P08684);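 further: CYP3A4 tested as one member of a cytochrome P450 panel screen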
Cytochrome P450 3A4, sequence (P08684 whole entry): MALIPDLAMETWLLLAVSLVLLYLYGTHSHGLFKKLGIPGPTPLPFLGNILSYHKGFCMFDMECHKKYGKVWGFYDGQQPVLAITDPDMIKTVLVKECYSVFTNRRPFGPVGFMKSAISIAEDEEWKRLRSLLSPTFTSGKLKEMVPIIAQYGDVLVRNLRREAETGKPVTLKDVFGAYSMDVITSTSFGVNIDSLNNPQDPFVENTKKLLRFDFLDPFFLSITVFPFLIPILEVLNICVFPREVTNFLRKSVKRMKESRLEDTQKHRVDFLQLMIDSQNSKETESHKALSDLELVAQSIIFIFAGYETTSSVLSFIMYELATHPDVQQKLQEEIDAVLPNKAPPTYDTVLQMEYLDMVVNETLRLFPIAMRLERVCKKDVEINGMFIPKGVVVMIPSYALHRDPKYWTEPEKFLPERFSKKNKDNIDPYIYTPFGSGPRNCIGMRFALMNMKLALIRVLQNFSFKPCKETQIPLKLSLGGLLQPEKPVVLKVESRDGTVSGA

[5] = viability of uninfected HEp-2 cells – cell-based, HTS, cytotoxicity control for RSV inhibitor project, dose response (AID 2410); type: functional; details: human respiratory syncytial virus
Streptokinase A = molecular target: T2, Streptokinase A (Streptococcus pyogenes serotype M1, UniProt P10520); test: viability-normalized secreted streptokinase activity reduction – plasminogen activation absorbance, OD405, dose response (AID 1914); type: functional, Streptococcus pyogenes M1 GAS;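 further: secreted streptokinase activity via plasminogen activation per viability signal from cell pellet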
T2 sequence (P10520 whole entry): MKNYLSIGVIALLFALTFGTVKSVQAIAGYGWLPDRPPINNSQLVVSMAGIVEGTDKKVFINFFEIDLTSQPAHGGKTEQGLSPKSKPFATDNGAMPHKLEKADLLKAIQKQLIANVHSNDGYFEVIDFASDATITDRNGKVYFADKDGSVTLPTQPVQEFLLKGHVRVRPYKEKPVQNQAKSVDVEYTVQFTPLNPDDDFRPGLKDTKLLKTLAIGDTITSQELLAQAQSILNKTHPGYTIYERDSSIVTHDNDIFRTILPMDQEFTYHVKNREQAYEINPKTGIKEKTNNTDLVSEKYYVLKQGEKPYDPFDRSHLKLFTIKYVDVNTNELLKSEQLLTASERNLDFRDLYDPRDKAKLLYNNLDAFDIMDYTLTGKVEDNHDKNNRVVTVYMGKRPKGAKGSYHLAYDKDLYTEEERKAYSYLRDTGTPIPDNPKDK

Cytochrome P450 2C19 = Cytochrome P450 2C19 (Homo sapiens, UniProt P33261); test: Cytochrome panel assay with activity outcomes. Panel member name: p450-cyp2c19 Compounds with AC50 equal or less than 10 uM are considered active; type: functional; details: read-out: AC50
Cytochrome P450 2C19, sequence (P33261 whole entry): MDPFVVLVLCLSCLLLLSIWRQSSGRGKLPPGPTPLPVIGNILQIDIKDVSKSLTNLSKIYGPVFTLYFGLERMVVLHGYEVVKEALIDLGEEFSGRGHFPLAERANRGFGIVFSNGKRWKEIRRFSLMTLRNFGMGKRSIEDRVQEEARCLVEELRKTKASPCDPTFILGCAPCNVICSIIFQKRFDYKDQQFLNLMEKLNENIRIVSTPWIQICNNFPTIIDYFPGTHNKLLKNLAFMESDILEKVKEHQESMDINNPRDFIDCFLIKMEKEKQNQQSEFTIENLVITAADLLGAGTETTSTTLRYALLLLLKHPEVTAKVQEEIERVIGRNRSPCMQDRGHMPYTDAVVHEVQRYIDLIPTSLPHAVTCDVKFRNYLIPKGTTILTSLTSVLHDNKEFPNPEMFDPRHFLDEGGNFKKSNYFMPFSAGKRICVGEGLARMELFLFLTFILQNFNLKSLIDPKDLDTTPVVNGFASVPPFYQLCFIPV

[6] = NIH3T3 cell viability loss – ATP luminescence, mouse fibroblasts, counter-screen, dose response (AID 2010); type: functional, cell-based;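 further: cells exposed to compound for about 90 hours before reading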
[7] = Trypanosoma cruzi growth suppression in host cells – NIH3T3 host cells, beta-gal luminescence, confirmation (AID 2044); type: functional, cell-based;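 further: intracellular parasites grown in NIH/3T3 mouse fibroblasts as host cells; luminescent beta-galactosidase reporter signal from transgenic T. cruzi replicating inside host cells; inhibitors lower the luminescence signal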
INS1 = test: INS-1E survival protection against cytokine death – cell-based, luminescence, retest, dose response (AID 449756); type: functional; details: Rattus norvegicus;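 further: cell death triggered by IL-1 beta plus TNF-alpha plus IFN-gamma mixture; protective hits raise ATP signal compared with cytokine alone wells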
Cytochrome P450 1A2 = molecular target: T3, Cytochrome P450 1A2 (Homo sapiens, UniProt P05177);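 further: PubChem cytochrome P450 panel assay, CYP1A2 panel member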
T3 sequence (P05177 whole entry): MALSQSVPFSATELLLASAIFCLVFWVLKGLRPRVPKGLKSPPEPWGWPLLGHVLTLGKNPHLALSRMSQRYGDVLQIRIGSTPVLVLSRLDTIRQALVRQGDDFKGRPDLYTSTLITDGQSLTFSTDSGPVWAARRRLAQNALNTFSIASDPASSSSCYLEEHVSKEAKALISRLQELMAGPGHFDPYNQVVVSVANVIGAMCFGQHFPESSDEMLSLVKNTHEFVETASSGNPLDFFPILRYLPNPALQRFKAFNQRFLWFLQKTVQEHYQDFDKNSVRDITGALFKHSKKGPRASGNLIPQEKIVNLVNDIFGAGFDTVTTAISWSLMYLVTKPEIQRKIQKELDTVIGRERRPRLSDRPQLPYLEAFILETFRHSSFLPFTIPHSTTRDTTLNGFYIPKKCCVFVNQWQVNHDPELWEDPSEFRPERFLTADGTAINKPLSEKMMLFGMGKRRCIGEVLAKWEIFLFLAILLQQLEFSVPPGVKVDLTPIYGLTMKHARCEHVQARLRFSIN

CC1=NN(c2cccc(Cl)c2)C(=O)C12CC(C)=C(C)CS2 (configuration not stated)
EC50 (Protein RecA): 13.2 µM (active)

O=C1NN(c2ccc(F)cc2)C(=O)/C1=C/c1cccs1
EC50 [1]: > 38 µM (not active)
EC50 [2]: > 160 µM (inactive)

COc1ccc(-c2csc(N(CC3CCCO3)C(=O)c3ccco3)n2)cc1 (configuration not stated)
EC50 [1]: > 38 µM (not active)
EC50 [2]: > 160 µM (inactive)

O=C1NC[C@@H](Cc2cccc3ccccc23)N(CCCCC2CCCCC2)C1=O
EC50 (Streptococcus): 7.07 µM (active)
AC50 [3]: 3.84 µM (active)
EC50 [4]: 3.38 µM (active)

CCCC(=O)N1c2ccccc2C(N(C(C)=O)c2ccccc2)CC1C (configuration not stated)
AC50 (Cytochrome P450 3A4): 0.891 µM (inconclusive)

O=C(Nc1ccc2c(c1)OCO2)C1CCN(C(=O)CSc2ncnc3ccccc23)CC1
CC50 [5]: 41.4 µM (active)

O=C1CCCC=C1[C@H](CCc1ccccc1)OC(=O)c1ccc(Br)cc1
AC50 (Cytochrome P450 3A4): 5.01 µM (inconclusive)

O=C(NC(=S)Nc1cccc(-c2ccc(CO)o2)c1)c1cccs1
EC50 (Streptococcus): 68.4 µM (active)
EC50 [4]: 23.1 µM (active)
EC50 (Streptokinase A): > 150 µM (not active)

O=C(Nc1ccc(F)cc1)N1CCCCCC1
EC50 (Streptococcus): > 150 µM (not active)
EC50 [4]: > 150 µM (not active)
EC50 (Streptokinase A): > 150 µM (not active)

COc1ccc(N2C(=O)NC3CC2(C)Oc2ccccc23)cc1OC (configuration not stated)
AC50 (Cytochrome P450 2C19): 7.94 µM (inconclusive)
AC50 (Cytochrome P450 3A4): 22.4 µM (inconclusive)

COc1ccc(NC(=O)N2CCCC3(CCN(C(=O)c4cc(C(F)(F)F)cc(C(F)(F)F)c4)CC3)C2)cc1
AC50 (Cytochrome P450 3A4): 10 µM (inconclusive)

CCC(C)n1c(-c2cccs2)nc2nc3ccccc3nc21 (configuration not stated)
AC50 [3]: 2.73 µM (active)

CSc1ccc(C2=CC(=O)C[C@H](c3ccc(Cl)cc3)C2)cc1
AC50 [3]: 1.7 µM (active)

CC(C)N=C(S)NC(c1ccccc1)(c1ccccc1)c1ccccc1
EC50 [6]: > 60 µM (not active)
EC50 (Streptococcus): > 150 µM (not active)
EC50 [4]: 6.6 µM (active)
EC50 [7]: 3.99 µM (active)
AC50 (INS1): 8.18 µM (active)

O=C(Nc1ccc(O)cc1)c1ccc(NC(=O)c2cccs2)cc1
AC50 [3]: 3.51 µM (active)

Cc1ccccc1-c1ccnc2[nH]n(-c3ccccc3)c(=O)c12
EC50 [1]: > 38 µM (not active)
EC50 [2]: > 160 µM (inactive)

COc1cc(/C=C(\C#N)c2ccccn2)ccc1OCC(=O)Nc1ccc(Br)cc1
AC50 [3]: 1.71 µM (active)

Cc1ccc(NC(S)=NC2CCCC2)cc1
AC50 (Cytochrome P450 3A4): 10 µM (inconclusive)

O=C(Nc1ccccc1)N1CC[C@@]2(CCCN(C(=O)c3ccncc3)C2)C1
AC50 (Cytochrome P450 3A4): 15.8 µM (inconclusive)

CCn1nnnc1NC(=O)c1cc(Cl)c(OC)c(Cl)c1
EC50 [1]: 2.51 µM (active)
EC50 [2]: > 160 µM (inactive)

CCc1c(C)sc2nc(C(C)C)nc(SCC(=O)N3CCc4ccccc4C3)c12
EC50 (Streptococcus): 15.1 µM (active)
AC50 [3]: 4.63 µM (active)
EC50 [4]: 9.77 µM (active)
EC50 (Streptokinase A): 2.38 µM (active)
AC50 (INS1): 1.94 µM (active)

O=C(c1ccccc1)c1sc(N2CCCCCC2)nc1-c1ccccc1
CC50 [5]: 31.1 µM (active)

O=c1c2cc(Br)ccc2nc(-c2ccccc2)n1O
EC50 [1]: 1.99 µM (active)
EC50 [2]: 70.4 µM (active)

CCCCOc1ccccc1C1C(C(=O)OC)=C(C)N(C)C(C)=C1C(=O)OC
CC50 [5]: > 50 µM (active)

COc1ccc(CNC(=O)Cc2csc(NC(=O)Nc3ccccc3OC)n2)cc1
EC50 (Streptococcus): > 150 µM (not active)
EC50 [4]: > 150 µM (not active)
EC50 (Streptokinase A): > 150 µM (not active)

COCc1ccc(O)c2ncccc12
AC50 (INS1): 5 µM (active)

COc1ccc(NC(=O)N2CCCC3(CCN(C(=O)c4cccc(F)c4)CC3)C2)cc1
AC50 (Cytochrome P450 3A4): 15.8 µM (inconclusive)

CC(COc1ccc(C(C)C)cc1)NC(=O)c1ccc(Br)o1 (configuration not stated)
EC50 (Streptococcus): > 150 µM (not active)
EC50 [4]: 45.6 µM (active)
EC50 (Streptokinase A): > 150 µM (not active)

CC(C)C(=O)NC(c1ccccc1)c1cc([N+](=O)[O-])c2cccnc2c1O (configuration not stated)
EC50 (Streptococcus): 2.98 µM (active)
AC50 [3]: 1.27 µM (active)
EC50 [4]: 2.12 µM (active)
EC50 (Streptokinase A): > 150 µM (not active)
AC50 (INS1): 6.59 µM (active)

Oc1ccc(Oc2ccc(Oc3ccc(O)cc3)cc2)cc1
EC50 (Streptococcus): 18.4 µM (active)
EC50 [4]: 8.4 µM (active)
EC50 (Streptokinase A): > 150 µM (not active)

CCCC(O)(c1ccc(Cl)cc1)C(CN1CCOCC1)c1ccc(Cl)cc1 (configuration not stated)
AC50 [3]: 6 µM (active)

Cc1cc2nc(C3CCCN(C(S)=Nc4ccccc4)C3)[nH]c2cc1C (configuration not stated)
AC50 (Cytochrome P450 2C19): 7.08 µM (inconclusive)
AC50 (Cytochrome P450 3A4): 0.141 µM (inconclusive)
AC50 (Cytochrome P450 1A2): 1.58 µM (inconclusive)

Cc1ccc(N=Nc2c(N)nn3c(O)c4c(nc23)CCCC4)cc1
AC50 (Cytochrome P450 3A4): 7.94 µM (inconclusive)

CCOC(=O)N1CCN(c2cc(N)c([N+](=O)[O-])cc2F)CC1
CC50 [5]: > 50 µM (active)

Cc1cc(OCc2nc(-c3ccc(NC(=O)c4cccnc4)cc3)no2)ccc1Cl
CC50 [5]: > 50 µM (active)
AC50 (INS1): 0.624 µM (active)

CCN=C(S)N1N=C2c3ccccc3CCC2C1c1ccc(F)cc1 (configuration not stated)
AC50 [3]: 1.46 µM (active)

COc1ccc(CNc2cc(-c3ccccc3CN(C)C)ncn2)c(OC)c1
AC50 (Cytochrome P450 3A4): 15.8 µM (inconclusive)
AC50 (Cytochrome P450 1A2): 15.8 µM (inconclusive)

CCN(CC)CCN(C(=O)C1=COCCO1)c1nc2cc(C)cc(C)c2s1
EC50 (Streptococcus): > 150 µM (not active)
EC50 [4]: > 150 µM (not active)
EC50 (Streptokinase A): > 150 µM (not active)

NS(=O)(=O)Cc1noc2ccccc12
AC50 (Cytochrome P450 3A4): 31.6 µM (inconclusive)

O=C(CC1CC2CCC1C2)NCCc1ccc(Cl)cc1 (configuration not stated)
AC50 (INS1): > 260 µM (inactive)

CC1(C)CC[C@]2(CO)CC[C@]3(C)C(=CCC4[C@@]5(C)CC[C@H](O)[C@@](C)(CO)C5CC[C@]43C)[C@@H]2C1 (some centres not stated)
AC50 [3]: 3.13 µM (active)

C/C(=N/NC(=O)c1cc(-c2ccccc2)nc2c(Cl)cccc12)c1cccnc1
EC50 (Streptococcus): > 150 µM (not active)
EC50 [4]: > 150 µM (not active)
EC50 (Streptokinase A): 25.9 µM (inconclusive)

Cc1[nH]n(-c2ccccc2)c(=O)c1/C=C1/C(=O)NN(c2ccc(F)cc2)C1=O
AC50 [3]: 4.08 µM (active)

COc1cc(/C=N/Nc2nc(Nc3ccccc3)nc(-n3nc(C)cc3C)n2)cc(OC)c1OC
EC50 [6]: 7.23 µM (active)
EC50 (Streptococcus): 13.8 µM (active)
AC50 [3]: 3.63 µM (active)
EC50 [4]: 5.1 µM (active)
EC50 (Streptokinase A): > 150 µM (not active)
EC50 [7]: 0.737 µM (active)
